Source: patent US7939292B2, “Modified heparinase III and methods of sequencing therewith” (Massachusetts Institute of Technology, priority 2000, dated 2011)

Assays:
Assay type in all cases: biochemical, Flavobacterium heparinum
heparinase III [1] = target: T1, heparinase III (Pedobacter heparinus, UniProt Q59289); experiment: Reactivation of DEPC-modified enzyme with hydroxylamine; design: Activity (%): concentration or dose not given beside the values
T1 construct: compared to the native heparinase III isolated directly from Flavobacterium heparinum; purchased IBEX Technologies (Montreal, Canada), received as a gift rather than bought; host or cells: Flavobacterium heparinum (natural producer)
Description: (B) Reactivation of DEPC-Modified Enzyme with Hydroxylamine. Similar to what was completed with heparinase I and II (Godavarti, R., Cooney, C. L., Langer, R., and Sasisekharan, R. (1996) Biochemistry 35, 6846-52 and Shriver, Z., Hu, Y., and Sasisekharan, R. (1998) J. Biol. Chem. 273, 10160-67), heparinase III (50 μg/mL) was incubated with 0.97 mM DEPC, pH 6.5 until its enzymatic activity was reduced to 50% of its initial value. […] The reaction was incubated at room temperature for 6 hours. Aliquots were withdrawn every hour for the activity assay. The control mixture contained no DEPC but the same concentration of hydroxylamine to account for the loss of nonspecific activity. The ratio of the activity of the reaction mixture over the activity of the control was calculated to determine recovery of enzymatic activity.

heparinase III [2] = target: T1, heparinase III; experiment: DEPC inactivation of heparinase III (UV 232 nm activity assay)
Description: The activity of heparinase III was measured using a UV 232 nm assay similar to those reported for heparinase I and heparinase II (Godavarti, R., Cooney, C. L., Langer, R., and Sasisekharan, R. (1996) Biochemistry 35, 6846-52; Shriver, Z., Hu, Y., and Sasisekharan, R. (1998) J. Biol. Chem. 273, 10160-67; and Lohse, D. and Linhardt, R. J. (1992) J. Biol. Chem. 267, 781-87). Briefly, the increase in absorbance at 232 nm as a function of time was monitored under saturating substrate conditions. All assays were performed with heparan sulfate at a concentration of 2 mg/ml in 50 mM sodium phosphate, pH 7.6. The temperature for enzymatic activity measurements was kept constant at 35° C.
(A) DEPC Inactivation of Heparinase III. At pH values ranging from 6.0 to 8.0, heparinase III (50 μg/mL) was incubated with DEPC in 50 mM sodium phosphate buffer at 25° C. The DEPC stock solution (6.9 M) was diluted with ethanol. […] At each pH, three reactions were run using different concentrations of DEPC, ranging from 50 μM to 2.5 mM. At fixed time intervals, 25 μL aliquots were withdrawn from the reaction mixtures for the UV 232 nm activity assay.
The kinetics of DEPC inactivation of heparinase III was determined by plotting the natural log of percent activity versus an adjusted time term (to account for the decomposition of DEPC). Briefly, this adjusted time term (t′) was calculated according to the following equation: […]
In this equation, k′ is the first order rate constant for DEPC hydrolysis and t is the measured time after addition of DEPC to the heparinase III solution. At each pH, the order of the reaction in DEPC was determined by plotting the observed rate constants of inactivation at each pH vs. log [DEPC]. The slope of this graph is n, the order of the reaction with respect to DEPC (Lundblad, R. (1995) Techniques in Protein Modification, CRC Press, Boca Raton).
Heparinase III was incubated with 0.31 (□), 0.54 (●), 0.97 (◯), 1.5 (▴), 1.9 (Δ) mM DEPC at pH 6.5 and at 25° C. (shown in inset of FIG. 1). […]

heparinase III [3] = target: T1, heparinase III; experiment: Quantification of histidines modified by DEPC (240 nm) with activity check
Description: (D) Quantification of the Number of Histidines Modified by DEPC. The extent of modification of an enzyme by DEPC can be determined by monitoring the formation of the N-carbethoxylhistidyl adduct at 240 nm. At time zero, 1.5 mM DEPC was added to the cuvette containing heparinase III in sodium phosphate buffer, pH 7.0. The change in absorbance at 240 nm was monitored every minute for 10 min. The number of modified residues was determined using a molar extinction coefficient of 3,200 M^−1cm^−1 (Lundblad, R. (1995) Techniques in Protein Modification, CRC Press, Boca Raton).
At time zero, 1.5 mM DEPC was added to a cuvette containing heparinase III (540 μg/mL) in sodium phosphate buffer, pH 7.0. The change in absorbance at 240 nm was monitored at time intervals for 10 min. The number of modified histidines was calculated using a ε=3200 M^−1cm^−1. At the beginning and end of the experiment, aliquots of heparinase III were withdrawn and tested for activity. Less than 5% of initial activity remained after 10 minutes incubation with DEPC.

heparinase III [4] = target: T1, heparinase III; experiment: Substrate protection of heparinase III against DEPC inactivation; conditions: 2 mg/mL heparan sulfate 30 min before 1.5 mM DEPC
Description: (C) Substrate Protection of Heparinase III against DEPC Inactivation. Heparinase III (50 μg/mL) was pre-incubated with 2 mg/mL heparan sulfate in 50 mM sodium phosphate, pH 7.6 for 30 minutes prior to the addition of 1.5 mM DEPC. A control reaction with no prior incubation of substrate was also completed. The time course of inactivation for both was determined using the heparinase III activity assay.
Substrate protection of heparinase III inactivation by DEPC was also assessed (FIG. 4). Heparinase III (50 μg/mL) was incubated with 2 mg/mL heparan sulfate for 30 min. 1.5 mM DEPC was added to the reaction and time course of inactivation was completed using the heparinase III activity assay (O). A control reaction without pre-incubation with heparan sulfate was also done (□).

T1 sequence (Q59289 25-659): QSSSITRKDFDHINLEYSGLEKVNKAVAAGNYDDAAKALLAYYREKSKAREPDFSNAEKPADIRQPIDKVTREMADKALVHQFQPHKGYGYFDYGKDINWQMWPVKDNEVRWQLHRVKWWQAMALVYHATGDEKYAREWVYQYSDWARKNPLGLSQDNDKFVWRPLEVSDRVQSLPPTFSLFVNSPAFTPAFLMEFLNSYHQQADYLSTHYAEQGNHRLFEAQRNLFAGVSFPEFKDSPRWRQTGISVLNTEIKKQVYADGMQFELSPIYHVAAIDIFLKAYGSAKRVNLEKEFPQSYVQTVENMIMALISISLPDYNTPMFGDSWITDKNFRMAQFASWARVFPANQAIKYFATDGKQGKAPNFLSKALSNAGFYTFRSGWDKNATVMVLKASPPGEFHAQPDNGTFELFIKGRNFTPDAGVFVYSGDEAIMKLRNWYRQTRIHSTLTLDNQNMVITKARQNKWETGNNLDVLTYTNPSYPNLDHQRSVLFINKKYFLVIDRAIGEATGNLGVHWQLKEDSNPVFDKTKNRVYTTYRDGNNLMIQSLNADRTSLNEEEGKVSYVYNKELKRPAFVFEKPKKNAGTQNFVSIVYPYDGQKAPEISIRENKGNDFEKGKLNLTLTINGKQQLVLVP

SMILES: CCOC(=O)OC(=O)OCC [DEPC, diethylpyrocarbonate]
- activity at 970 µM (heparinase III [1]; Time 0 min after hydroxylamine, 0.97 mM DEPC, pH 6.5): 51%
- Activity (%) (heparinase III [1]; Time 30 min after hydroxylamine): 60%
- Activity (%) (heparinase III [1]; Time 60 min after hydroxylamine): 66%
- Activity (%) (heparinase III [1]; Time 90 min after hydroxylamine): 72%
- Activity (%) (heparinase III [1]; Time 180 min after hydroxylamine): 76%
- Activity (%) (heparinase III [1]; Time 240 min after hydroxylamine): 78%
- Activity (%) (heparinase III [1]; Time 360 min after hydroxylamine): 80%
- reversibility of DEPC modification (heparinase III [1]; incubation with 300 mM hydroxylamine): 90%
- inhibition of heparinase III (heparinase III [2]): inhibit in a dose-dependent fashion
- kinact/KI (heparinase III [2]; 0.31-1.9 mM DEPC, pH 6.5, 25° C., read-out: second-order rate constant of inactivation (converted)): 3.33 M⁻¹ s⁻¹
- order of the reaction in DEPC (slope of kinact vs. log [DEPC]) (heparinase III [2]; pH 6.5): 1
- histidines modified per enzyme molecule (heparinase III [3]; 1.5 mM DEPC, pH 7.0, 10 minutes): 1.8
- remaining activity at 1500 µM (heparinase III [3]; after 10 minutes incubation with 1.5 mM DEPC, pH 7.0, read-out: initial activity remaining): < 5%
- inactivation kinetics after preincubation with heparan sulfate (heparinase III [4]): lower inactivation kinetics
